The CheMixHub viscosity set
Where “and” joins values, the source holds several entries; their conditions need not be identical. Equal values may be shown once.

Experiment: xn = mol fraction of the nth substance listed

ClC(Cl)(Cl)Cl + C1COCCO1
101 kPa
Settings | viscosity
298.15 K, x1 = 0.1175 | 1.203 mPa·s
298.15 K, x1 = 0.219 | 1.208 mPa·s
298.15 K, x1 = 0.373 | 1.193 mPa·s
298.15 K, x1 = 0.5081 | 1.165 mPa·s
298.15 K, x1 = 0.675 | 1.093 mPa·s
298.15 K, x1 = 0.8092 | 1.009 mPa·s
298.15 K, x1 = 0.892 | 0.961 mPa·s
303.15 K, x1 = 0.675 | 1.007 mPa·s
303.15 K, x1 = 0.8092 | 0.938 mPa·s
303.15 K, x1 = 0.892 | 0.896 mPa·s
303.15 K, x2 = 0.0983 | 0.901 mPa·s
303.15 K, x2 = 0.1116 | 0.907 mPa·s
303.15 K, x2 = 0.112 | 0.922 mPa·s
303.15 K, x2 = 0.204 | 0.957 mPa·s
303.15 K, x2 = 0.2198 | 0.9914 mPa·s
303.15 K, x2 = 0.22 | 1.016 mPa·s
303.15 K, x2 = 0.2994 | 1.011 mPa·s
303.15 K, x2 = 0.4025 | 1.055 mPa·s
303.15 K, x2 = 0.4985 | 1.086 mPa·s
303.15 K, x2 = 0.53 | 1.163 mPa·s
303.15 K, x2 = 0.5302 | 1.163 mPa·s
303.15 K, x2 = 0.6286 | 1.164 mPa·s
303.15 K, x2 = 0.629 | 1.164 mPa·s
303.15 K, x2 = 0.7245 | 1.161 mPa·s
303.15 K, x2 = 0.725 | 1.161 mPa·s
303.15 K, x2 = 0.91 | 1.078 mPa·s and 1.092 mPa·s
308.15 K, x1 = 0.219 | 1.024 mPa·s
308.15 K, x1 = 0.5081 | 0.992 mPa·s
308.15 K, x1 = 0.675 | 0.93 mPa·s
308.15 K, x1 = 0.8092 | 0.871 mPa·s
308.15 K, x1 = 0.892 | 0.834 mPa·s
313.15 K, x1 = 0.1175 | 0.95 mPa·s
313.15 K, x1 = 0.219 | 0.945 mPa·s
313.15 K, x1 = 0.373 | 0.934 mPa·s
313.15 K, x1 = 0.5081 | 0.92 mPa·s
313.15 K, x1 = 0.675 | 0.866 mPa·s
313.15 K, x1 = 0.8092 | 0.81 mPa·s
313.15 K, x1 = 0.892 | 0.778 mPa·s
318.15 K, x1 = 0.1175 | 0.882 mPa·s
318.15 K, x1 = 0.219 | 0.876 mPa·s
318.15 K, x1 = 0.373 | 0.865 mPa·s
318.15 K, x1 = 0.5081 | 0.85 mPa·s
318.15 K, x1 = 0.675 | 0.806 mPa·s
318.15 K, x1 = 0.8092 | 0.757 mPa·s
318.15 K, x1 = 0.892 | 0.73 mPa·s

ClC(Cl)(Cl)Cl + C=C(C)C(=O)OC
303.15 K, 101 kPa
Settings | viscosity [mPa·s]
x2 = 0.0997 | 0.7954
x2 = 0.1978 | 0.753
x2 = 0.4056 | 0.6767
x2 = 0.5067 | 0.641
x2 = 0.5941 | 0.6167
x2 = 0.7976 | 0.5599
x2 = 0.8944 | 0.536

ClC(Cl)(Cl)Cl + CC#N
viscosity [mPa·s], 101 kPa
Settings | 293.15 K | 298.15 K | 303.15 K | 313.15 K | 323.15 K
x2 = 0.007 | 0.954 | 0.883 | 0.813 | 0.74 | 0.638
x2 = 0.026 | 0.948 | 0.855 | 0.798 | 0.724 | 0.612
x2 = 0.084 | 0.906 | 0.862 | 0.831 | 0.736 | 0.659

CCCC(C)=O + CC(=O)O
viscosity [mPa·s], 101 kPa
Settings | x2 = 0.0997 | x2 = 0.1996 | x2 = 0.2989 | x2 = 0.3983 | x2 = 0.5013 | x2 = 0.6017 | x2 = 0.6987 | x2 = 0.8081 | x2 = 0.8922
298.15 K | 0.5074 | 0.5482 | 0.5923 | 0.6401 | 0.6986 | 0.7628 | 0.839 | 0.9225 | 1.011
308.15 K | 0.4551 | 0.4882 | 0.5246 | 0.5655 | 0.6134 | 0.667 | 0.727 | 0.8006 | 0.878
318.15 K | 0.4061 | 0.4339 | 0.4639 | 0.4989 | 0.5394 | 0.5838 | 0.635 | 0.6961 | 0.7519

ClC(Cl)(Cl)Cl + CC(=O)O
Settings | viscosity [mPa·s]
298.15 K, 101 kPa, x2 = 0.1 | 0.84
298.15 K, 101 kPa, x2 = 0.22 | 0.822
298.15 K, 101 kPa, x2 = 0.31 | 0.811
298.15 K, 101 kPa, x2 = 0.39 | 0.808
298.15 K, 101 kPa, x2 = 0.63 | 0.832
298.15 K, 101 kPa, x2 = 0.72 | 0.863
298.15 K, 101 kPa, x2 = 0.79 | 0.9
298.15 K, 101 kPa, x2 = 0.91 | 1.007
298.15 K, 101.33 kPa, x2 = 0.214 | 0.82
298.15 K, 101.33 kPa, x2 = 0.418 | 0.804
298.15 K, 101.33 kPa, x2 = 0.608 | 0.816
298.15 K, 101.33 kPa, x2 = 0.805 | 0.92
303.15 K, 101 kPa, x1 = 0.0697 | 1.071
303.15 K, 101 kPa, x1 = 0.2172 | 0.995
303.15 K, 101 kPa, x1 = 0.7482 | 0.894
313.15 K, 101 kPa, x1 = 0.0697 | 0.982
313.15 K, 101 kPa, x1 = 0.2172 | 0.876
313.15 K, 101 kPa, x1 = 0.7482 | 0.791
323.15 K, 101 kPa, x1 = 0.0697 | 0.917
323.15 K, 101 kPa, x1 = 0.2172 | 0.804
323.15 K, 101 kPa, x1 = 0.7482 | 0.697
